Measured values from ChEMBL document CHEMBL5212743, “Selectivity Literature for EUbOPEN Chemogenomics Library wave 3” (2023).

Assays:
[1] = biological target: Bromodomain-containing protein 1 (Homo sapiens, UniProt O95696); test: Selectivity interaction (AlphaScreen) EUB0000323b BRD1
[2] = biological target: 5-hydroxytryptamine receptor 6 (Homo sapiens) (UniProt P50406); conditions: at 10 µM
[3] = biological target: T1, Adenosine receptor A1 (Homo sapiens) (UniProt P30542); conditions: at 10 µM
T1 sequence (whole entry): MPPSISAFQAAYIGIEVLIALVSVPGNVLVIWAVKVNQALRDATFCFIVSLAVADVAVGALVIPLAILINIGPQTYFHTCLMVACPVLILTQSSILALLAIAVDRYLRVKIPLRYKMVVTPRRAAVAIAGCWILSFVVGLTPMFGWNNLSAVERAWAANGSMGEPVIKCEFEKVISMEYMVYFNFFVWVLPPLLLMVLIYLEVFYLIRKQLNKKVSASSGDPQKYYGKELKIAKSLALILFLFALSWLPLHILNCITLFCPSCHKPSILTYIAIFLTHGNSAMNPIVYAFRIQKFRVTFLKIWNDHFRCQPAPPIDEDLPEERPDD

[4] = biological target: T2, Adenosine receptor A3 (Homo sapiens) (UniProt P0DMS8); conditions: at 10 µM
T2 sequence (whole entry): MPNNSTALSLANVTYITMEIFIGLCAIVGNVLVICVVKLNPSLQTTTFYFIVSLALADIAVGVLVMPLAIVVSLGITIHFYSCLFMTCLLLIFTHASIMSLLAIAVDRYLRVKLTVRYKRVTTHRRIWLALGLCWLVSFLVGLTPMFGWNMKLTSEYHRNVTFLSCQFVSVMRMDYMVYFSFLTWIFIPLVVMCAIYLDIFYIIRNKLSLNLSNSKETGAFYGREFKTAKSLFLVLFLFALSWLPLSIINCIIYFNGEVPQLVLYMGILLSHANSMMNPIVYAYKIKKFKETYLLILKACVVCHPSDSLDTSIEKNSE

[5] = biological target: Bromodomain-containing protein 1 (Homo sapiens) (UniProt O95696)
[6] = biological target: Bromodomain-containing protein 4 (Homo sapiens, UniProt O60885)
Peregrin (Homo sapiens) = Peregrin (Homo sapiens) (UniProt P55201)
[7] = biological target: Bromodomain and PHD finger-containing protein 3 (Homo sapiens) (UniProt Q9ULD4)
[8] = biological target: Vascular endothelial growth factor receptor 2 (Homo sapiens, UniProt P35968); test: Selectivity interaction (Kinase panel (literature or Upstate/Millipore)) EUB0000665a KDR
[9] = biological target: T3, YEATS domain-containing protein 2 (Homo sapiens, UniProt Q9ULM3); test: Selectivity interaction (HTRF-based inhibition assay) EUB0000732a YEATS2
T3 sequence (Q9ULM3 whole entry): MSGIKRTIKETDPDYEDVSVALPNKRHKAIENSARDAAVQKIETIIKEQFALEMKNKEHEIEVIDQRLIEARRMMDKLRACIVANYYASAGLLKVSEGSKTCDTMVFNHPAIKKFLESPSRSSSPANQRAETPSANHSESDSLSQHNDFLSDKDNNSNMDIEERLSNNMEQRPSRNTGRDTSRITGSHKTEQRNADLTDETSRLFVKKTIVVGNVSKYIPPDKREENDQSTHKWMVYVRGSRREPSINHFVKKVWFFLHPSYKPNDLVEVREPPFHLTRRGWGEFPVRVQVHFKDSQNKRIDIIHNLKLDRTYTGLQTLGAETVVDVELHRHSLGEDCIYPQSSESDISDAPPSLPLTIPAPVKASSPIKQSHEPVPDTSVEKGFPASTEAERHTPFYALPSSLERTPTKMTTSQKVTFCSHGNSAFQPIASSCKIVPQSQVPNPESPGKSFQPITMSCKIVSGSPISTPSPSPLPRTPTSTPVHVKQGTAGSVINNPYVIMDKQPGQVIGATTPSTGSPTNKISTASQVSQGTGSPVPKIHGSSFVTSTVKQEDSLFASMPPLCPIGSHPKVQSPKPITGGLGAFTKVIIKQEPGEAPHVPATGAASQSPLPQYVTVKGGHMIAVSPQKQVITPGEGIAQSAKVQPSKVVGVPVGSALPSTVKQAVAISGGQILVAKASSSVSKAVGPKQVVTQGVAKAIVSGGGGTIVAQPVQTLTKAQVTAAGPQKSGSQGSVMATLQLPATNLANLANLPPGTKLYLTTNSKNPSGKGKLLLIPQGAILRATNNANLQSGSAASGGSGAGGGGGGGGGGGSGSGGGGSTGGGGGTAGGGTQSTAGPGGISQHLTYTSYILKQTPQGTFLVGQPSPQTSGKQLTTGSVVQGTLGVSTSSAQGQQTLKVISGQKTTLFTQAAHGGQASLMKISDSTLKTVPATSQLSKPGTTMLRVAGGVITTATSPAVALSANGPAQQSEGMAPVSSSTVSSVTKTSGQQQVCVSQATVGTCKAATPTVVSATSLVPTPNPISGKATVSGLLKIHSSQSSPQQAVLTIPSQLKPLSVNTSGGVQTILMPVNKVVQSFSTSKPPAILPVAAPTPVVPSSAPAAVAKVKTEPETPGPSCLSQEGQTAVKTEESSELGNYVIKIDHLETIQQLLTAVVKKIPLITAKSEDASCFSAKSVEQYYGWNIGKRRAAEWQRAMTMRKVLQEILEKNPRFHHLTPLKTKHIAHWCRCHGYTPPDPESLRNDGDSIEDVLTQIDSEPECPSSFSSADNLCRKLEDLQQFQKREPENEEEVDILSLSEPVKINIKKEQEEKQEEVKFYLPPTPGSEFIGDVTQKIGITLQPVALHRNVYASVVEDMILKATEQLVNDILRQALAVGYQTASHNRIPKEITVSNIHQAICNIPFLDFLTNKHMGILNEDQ

[10] = biological target: T4, YEATS domain-containing protein 4 (Homo sapiens, UniProt O95619); test: Selectivity interaction (HTRF-based inhibition assay) EUB0000732a YEATS4
[11] = biological target: Muscarinic acetylcholine receptor M2 (Homo sapiens, UniProt P08172); test: Selectivity interaction (PSP Principial panel 20118+ (panel of GPCRs, transporter, and ion channels)) EUB0000283b CHRM2
Histamine H3 receptor = Histamine H3 receptor (Homo sapiens, UniProt Q9Y5N1); test: Selectivity interaction (PSP Principial panel 20118+ (panel of GPCRs, transporter, and ion channels)) EUB0000283b HRH3
[12] = biological target: Serine/threonine-protein kinase pim-1 (Homo sapiens, UniProt P11309); test: Selectivity interaction (PSP kinase safety panel (Eurofins)) EUB0000283b PIM1
Tribbles homolog 2 = Tribbles homolog 2 (Homo sapiens, UniProt Q92519); test: Selectivity interaction (PSP kinase safety panel (Eurofins)) EUB0000283b TRIB2
[13] = biological target: Sodium-dependent noradrenaline transporter (Homo sapiens, UniProt P23975); test: Selectivity interaction (PSP Principial panel 20118+ (panel of GPCRs, transporter, and ion channels)) EUB0000283b SLC6A2
[14] = biological target: T3, YEATS domain-containing protein 2; test: Selectivity interaction (Bromodomain panel (TR-FRET assay)) EUB0000283b YEATS2
[15] = biological target: T4, YEATS domain-containing protein 4; test: Selectivity interaction (Bromodomain panel (TR-FRET assay)) EUB0000283b YEATS4
Acetylcholinesterase = Acetylcholinesterase (Homo sapiens, UniProt P22303); test: Selectivity interaction (PSP Principial panel 20118+ (panel of GPCRs, transporter, and ion channels)) EUB0000283b ACHE
Protein ENL [16] = biological target: T5, Protein ENL (Homo sapiens, UniProt Q03111); test: Selectivity interaction (BioLayer Interferometry assay (BLI)) EUB0000283b MLLT1
Protein ENL [17] = biological target: T5, Protein ENL; test: Selectivity interaction (ITC) EUB0000283b MLLT1
[18] = biological target: Chromatin remodeling regulator CECR2 (Homo sapiens, UniProt Q9BXF3); test: Selectivity interaction (Bromodomain panel (TR-FRET assay)) EUB0000283b CECR2
[19] = biological target: T3, YEATS domain-containing protein 2; test: Selectivity interaction (Enzyme panel (PDEs, ion channels, and GPCRS, HTRF assay)) EUB0000731a YEATS2
[20] = biological target: T4, YEATS domain-containing protein 4; test: Selectivity interaction (Enzyme panel (PDEs, ion channels, and GPCRS, HTRF assay)) EUB0000731a YEATS4
[21] = biological target: Protein ENL (Homo sapiens) (UniProt Q03111); test: Selectivity interaction (DSF assay) EUB0000731a MLLT1
Protein AF-9 [22] = biological target: T6, Protein AF-9 (Homo sapiens, UniProt P42568)
Protein AF-9 [23] = biological target: T6, Protein AF-9; remark: listed apart in the source
[24] = biological target: Protein AF-9 (Homo sapiens) (UniProt P42568)
[25] = biological target: 5-hydroxytryptamine receptor 2B (Homo sapiens, UniProt P41595); test: Selectivity interaction (CEREP panel (cellular receptors and 30 other enzymes)) EUB0000199c HTR2B
[26] = biological target: T7, Alpha-1A adrenergic receptor (Homo sapiens, UniProt P35348); test: Selectivity interaction (CEREP panel (cellular receptors and 30 other enzymes)) EUB0000199c ADRA1A
T7 sequence (P35348 whole entry): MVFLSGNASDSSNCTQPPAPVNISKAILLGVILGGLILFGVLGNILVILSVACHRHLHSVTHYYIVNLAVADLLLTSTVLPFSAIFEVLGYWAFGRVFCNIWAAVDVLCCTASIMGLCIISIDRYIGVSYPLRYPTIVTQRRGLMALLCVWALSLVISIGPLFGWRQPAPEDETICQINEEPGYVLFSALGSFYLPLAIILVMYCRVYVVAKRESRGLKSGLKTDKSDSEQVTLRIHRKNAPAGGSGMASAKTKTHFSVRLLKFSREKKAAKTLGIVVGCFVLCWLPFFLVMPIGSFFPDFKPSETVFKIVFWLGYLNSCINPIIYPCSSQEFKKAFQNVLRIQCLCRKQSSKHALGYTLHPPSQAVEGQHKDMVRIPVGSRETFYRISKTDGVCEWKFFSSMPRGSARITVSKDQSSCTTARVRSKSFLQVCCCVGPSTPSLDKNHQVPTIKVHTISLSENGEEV

[27] = biological target: T8, Alpha-1B adrenergic receptor (Homo sapiens, UniProt P35368); test: Selectivity interaction (CEREP panel (cellular receptors and 30 other enzymes)) EUB0000199c ADRA1B
T8 sequence (P35368 whole entry): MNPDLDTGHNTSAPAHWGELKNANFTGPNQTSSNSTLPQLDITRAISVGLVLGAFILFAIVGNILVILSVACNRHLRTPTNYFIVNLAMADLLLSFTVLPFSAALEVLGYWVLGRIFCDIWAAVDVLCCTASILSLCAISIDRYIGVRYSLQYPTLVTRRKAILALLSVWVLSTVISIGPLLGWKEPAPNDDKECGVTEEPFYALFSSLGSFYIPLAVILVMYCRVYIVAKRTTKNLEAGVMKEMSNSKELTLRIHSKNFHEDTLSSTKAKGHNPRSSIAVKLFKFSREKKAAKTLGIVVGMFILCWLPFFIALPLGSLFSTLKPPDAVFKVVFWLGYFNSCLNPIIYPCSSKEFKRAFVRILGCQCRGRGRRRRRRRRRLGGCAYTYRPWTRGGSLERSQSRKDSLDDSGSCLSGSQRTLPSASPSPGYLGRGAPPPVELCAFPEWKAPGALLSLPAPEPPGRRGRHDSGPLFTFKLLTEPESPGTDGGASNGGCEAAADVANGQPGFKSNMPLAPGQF

[28] = biological target: Kappa-type opioid receptor (Homo sapiens, UniProt P41145); test: Selectivity interaction (CEREP panel (cellular receptors and 30 other enzymes)) EUB0000199c OPRK1
[29] = biological target: SWI/SNF-related matrix-associated actin-dependent regulator of chromatin subfamily A member 2 (Homo sapiens) (UniProt P51531); test: Selectivity interaction (Bromodomain panel (DSF assay)) EUB0000199c SMARCA2

T4 sequence (O95619 whole entry, the tested form may be a part): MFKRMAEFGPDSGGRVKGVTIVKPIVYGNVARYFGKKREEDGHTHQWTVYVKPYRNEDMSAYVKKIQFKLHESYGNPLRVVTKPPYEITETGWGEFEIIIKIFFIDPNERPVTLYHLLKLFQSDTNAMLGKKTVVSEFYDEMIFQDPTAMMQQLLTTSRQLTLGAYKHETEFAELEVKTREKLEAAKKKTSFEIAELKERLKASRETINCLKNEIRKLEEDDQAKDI
T6 sequence (P42568 whole entry): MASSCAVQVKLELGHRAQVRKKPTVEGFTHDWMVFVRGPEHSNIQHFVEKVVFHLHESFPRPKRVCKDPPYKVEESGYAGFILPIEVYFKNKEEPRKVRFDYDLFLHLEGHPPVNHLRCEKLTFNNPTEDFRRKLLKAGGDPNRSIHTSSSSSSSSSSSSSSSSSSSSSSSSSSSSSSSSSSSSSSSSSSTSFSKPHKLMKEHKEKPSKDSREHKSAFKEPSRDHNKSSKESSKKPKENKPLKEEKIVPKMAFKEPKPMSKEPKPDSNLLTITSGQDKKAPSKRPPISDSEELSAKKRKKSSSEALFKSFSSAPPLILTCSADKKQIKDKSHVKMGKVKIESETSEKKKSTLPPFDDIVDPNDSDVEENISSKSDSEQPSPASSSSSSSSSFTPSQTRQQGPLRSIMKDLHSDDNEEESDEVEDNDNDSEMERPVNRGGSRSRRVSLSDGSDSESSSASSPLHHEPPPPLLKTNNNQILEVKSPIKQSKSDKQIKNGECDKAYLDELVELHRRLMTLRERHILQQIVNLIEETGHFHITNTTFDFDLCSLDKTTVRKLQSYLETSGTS
T5 sequence (Q03111 whole entry): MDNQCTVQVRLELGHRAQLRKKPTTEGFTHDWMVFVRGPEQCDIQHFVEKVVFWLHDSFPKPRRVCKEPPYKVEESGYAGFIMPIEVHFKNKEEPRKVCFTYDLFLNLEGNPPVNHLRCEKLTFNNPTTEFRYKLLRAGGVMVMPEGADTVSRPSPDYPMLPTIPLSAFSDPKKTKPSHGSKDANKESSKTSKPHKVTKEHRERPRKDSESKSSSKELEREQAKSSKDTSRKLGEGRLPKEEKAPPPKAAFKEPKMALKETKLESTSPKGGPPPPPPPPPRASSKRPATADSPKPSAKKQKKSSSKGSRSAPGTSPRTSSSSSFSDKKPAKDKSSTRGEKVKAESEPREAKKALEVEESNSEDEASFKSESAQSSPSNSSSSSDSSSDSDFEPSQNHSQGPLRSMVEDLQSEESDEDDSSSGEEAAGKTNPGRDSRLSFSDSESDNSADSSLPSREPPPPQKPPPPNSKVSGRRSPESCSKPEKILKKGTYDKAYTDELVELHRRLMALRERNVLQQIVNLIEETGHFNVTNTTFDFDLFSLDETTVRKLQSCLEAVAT
Sequence of Tribbles homolog 2 (Q92519 whole entry): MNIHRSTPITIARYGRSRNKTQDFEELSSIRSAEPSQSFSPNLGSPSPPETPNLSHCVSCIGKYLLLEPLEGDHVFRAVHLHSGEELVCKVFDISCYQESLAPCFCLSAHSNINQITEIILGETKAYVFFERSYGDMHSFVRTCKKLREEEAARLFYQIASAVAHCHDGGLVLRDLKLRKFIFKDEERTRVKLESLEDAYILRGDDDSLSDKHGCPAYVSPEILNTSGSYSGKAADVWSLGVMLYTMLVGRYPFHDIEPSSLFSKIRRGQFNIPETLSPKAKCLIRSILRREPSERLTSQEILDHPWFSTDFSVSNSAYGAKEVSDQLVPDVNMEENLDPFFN
Sequence of 5-hydroxytryptamine receptor 2B (P41595 whole entry): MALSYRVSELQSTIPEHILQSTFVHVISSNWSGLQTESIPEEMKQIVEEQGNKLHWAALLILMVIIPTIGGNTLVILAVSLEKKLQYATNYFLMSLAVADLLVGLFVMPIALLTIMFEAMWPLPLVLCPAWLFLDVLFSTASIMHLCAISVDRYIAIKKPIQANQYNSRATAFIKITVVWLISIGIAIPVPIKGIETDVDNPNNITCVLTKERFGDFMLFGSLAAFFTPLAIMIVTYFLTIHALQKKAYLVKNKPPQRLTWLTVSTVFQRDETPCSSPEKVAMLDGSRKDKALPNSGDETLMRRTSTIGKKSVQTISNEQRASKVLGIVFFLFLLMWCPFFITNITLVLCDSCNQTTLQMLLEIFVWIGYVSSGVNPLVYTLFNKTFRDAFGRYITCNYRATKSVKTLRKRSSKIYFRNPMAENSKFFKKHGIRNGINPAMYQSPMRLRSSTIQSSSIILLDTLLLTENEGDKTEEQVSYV
Sequence of Bromodomain and PHD finger-containing protein 3 (Homo sapiens) (Q9ULD4 whole entry): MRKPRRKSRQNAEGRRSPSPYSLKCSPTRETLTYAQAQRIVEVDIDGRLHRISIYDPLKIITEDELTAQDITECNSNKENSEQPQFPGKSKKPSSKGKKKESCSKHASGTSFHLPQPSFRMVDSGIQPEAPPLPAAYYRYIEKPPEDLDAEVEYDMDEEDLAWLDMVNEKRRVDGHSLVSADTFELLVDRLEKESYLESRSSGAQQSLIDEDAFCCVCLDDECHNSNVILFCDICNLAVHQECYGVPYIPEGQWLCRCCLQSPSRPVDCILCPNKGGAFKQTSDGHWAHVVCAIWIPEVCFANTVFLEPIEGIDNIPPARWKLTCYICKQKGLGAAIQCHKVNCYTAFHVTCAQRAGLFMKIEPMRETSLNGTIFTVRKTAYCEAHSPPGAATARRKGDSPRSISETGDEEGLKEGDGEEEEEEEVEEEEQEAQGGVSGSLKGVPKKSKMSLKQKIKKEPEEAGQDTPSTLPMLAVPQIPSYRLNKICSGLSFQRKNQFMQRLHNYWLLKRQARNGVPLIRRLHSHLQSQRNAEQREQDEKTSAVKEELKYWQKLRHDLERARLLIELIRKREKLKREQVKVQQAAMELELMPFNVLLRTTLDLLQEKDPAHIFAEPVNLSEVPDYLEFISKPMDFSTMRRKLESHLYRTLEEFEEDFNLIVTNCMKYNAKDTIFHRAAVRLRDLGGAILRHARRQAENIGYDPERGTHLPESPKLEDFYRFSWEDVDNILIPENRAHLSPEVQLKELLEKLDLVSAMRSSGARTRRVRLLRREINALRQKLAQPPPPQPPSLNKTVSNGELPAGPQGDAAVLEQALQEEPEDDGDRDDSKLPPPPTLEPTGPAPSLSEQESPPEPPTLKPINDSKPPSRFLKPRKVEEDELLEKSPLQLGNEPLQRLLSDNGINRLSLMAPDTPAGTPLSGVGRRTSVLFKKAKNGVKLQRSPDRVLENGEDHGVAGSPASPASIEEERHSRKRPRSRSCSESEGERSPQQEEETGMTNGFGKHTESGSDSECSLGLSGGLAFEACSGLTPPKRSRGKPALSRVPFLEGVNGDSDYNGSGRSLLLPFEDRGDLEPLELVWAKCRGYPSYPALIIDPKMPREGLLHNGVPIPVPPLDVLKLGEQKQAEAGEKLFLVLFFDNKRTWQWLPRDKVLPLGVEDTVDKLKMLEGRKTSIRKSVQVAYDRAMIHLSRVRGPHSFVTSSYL
Sequence of Muscarinic acetylcholine receptor M2 (P08172 whole entry): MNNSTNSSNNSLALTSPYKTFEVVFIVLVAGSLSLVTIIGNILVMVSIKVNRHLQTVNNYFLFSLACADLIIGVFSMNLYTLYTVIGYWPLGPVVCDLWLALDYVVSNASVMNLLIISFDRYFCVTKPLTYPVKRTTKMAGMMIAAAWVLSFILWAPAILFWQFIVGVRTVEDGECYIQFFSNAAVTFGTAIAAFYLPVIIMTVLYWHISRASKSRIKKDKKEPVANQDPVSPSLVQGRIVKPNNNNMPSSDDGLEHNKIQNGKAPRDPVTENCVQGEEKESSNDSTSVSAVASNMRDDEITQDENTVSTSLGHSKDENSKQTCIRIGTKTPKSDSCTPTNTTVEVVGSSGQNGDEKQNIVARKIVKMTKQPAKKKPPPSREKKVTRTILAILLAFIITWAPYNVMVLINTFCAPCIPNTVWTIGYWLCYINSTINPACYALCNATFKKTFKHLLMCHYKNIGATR
Sequence of Acetylcholinesterase (P22303 whole entry): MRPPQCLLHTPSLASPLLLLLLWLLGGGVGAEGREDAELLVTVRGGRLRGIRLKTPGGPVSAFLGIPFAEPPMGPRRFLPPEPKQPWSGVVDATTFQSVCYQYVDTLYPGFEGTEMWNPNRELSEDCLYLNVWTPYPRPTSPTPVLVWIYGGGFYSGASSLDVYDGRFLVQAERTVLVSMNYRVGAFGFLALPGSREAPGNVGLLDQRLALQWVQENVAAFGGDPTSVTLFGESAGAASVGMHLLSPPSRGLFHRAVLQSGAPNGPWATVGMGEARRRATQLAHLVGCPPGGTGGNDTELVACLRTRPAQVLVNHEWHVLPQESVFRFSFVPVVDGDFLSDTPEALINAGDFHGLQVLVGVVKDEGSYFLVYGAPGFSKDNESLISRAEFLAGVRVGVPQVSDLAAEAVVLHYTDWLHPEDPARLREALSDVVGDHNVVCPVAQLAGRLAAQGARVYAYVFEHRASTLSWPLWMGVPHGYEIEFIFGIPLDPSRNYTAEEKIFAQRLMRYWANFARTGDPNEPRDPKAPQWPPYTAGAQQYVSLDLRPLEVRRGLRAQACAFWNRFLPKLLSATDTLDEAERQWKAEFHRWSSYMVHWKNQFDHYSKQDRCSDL
Sequence of Kappa-type opioid receptor (P41145 whole entry): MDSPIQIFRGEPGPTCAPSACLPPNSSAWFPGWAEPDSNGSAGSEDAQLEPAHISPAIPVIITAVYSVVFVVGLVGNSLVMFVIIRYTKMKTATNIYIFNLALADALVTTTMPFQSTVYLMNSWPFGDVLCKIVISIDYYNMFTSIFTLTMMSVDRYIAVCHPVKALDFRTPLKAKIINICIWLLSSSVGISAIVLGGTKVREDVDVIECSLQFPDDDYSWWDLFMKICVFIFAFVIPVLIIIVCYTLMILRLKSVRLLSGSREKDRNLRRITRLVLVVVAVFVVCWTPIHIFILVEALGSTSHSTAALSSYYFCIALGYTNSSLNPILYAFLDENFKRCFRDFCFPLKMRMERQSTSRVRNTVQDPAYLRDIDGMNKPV
Sequence of Protein AF-9 (Homo sapiens) (P42568 whole entry): as the sequence (P42568 whole entry) above
Sequence of Protein ENL (Homo sapiens) (Q03111 whole entry): as the sequence (Q03111 whole entry) above

`COc1cc2c(cc1NS(=O)(=O)c1ccc(Br)cc1C)n(C)c(=O)n2C` was tested, and the IC50 [1] was 2.2 µM, the % of inhibition [2] was 54% and the % of inhibition [3] was 82%. The % of inhibition [4] was 53%, the dTm [5] was 3.1 K and the dTm [6] was 2.1 K. The dTm (Peregrin (Homo sapiens)) was 6.5 K and the dTm [7] was 3.3 K.

With `Cn1cc(-c2[nH]c3cc(NC(=O)[C@H](N)C4CCCCC4)cc4c3c2C=NNC4=O)cn1` the IC50 [8] was 0.008 µM.

`CN(C)C(=O)c1ccc(-c2cc(C(=O)N(C)C3CCCC3)no2)cc1O` was tested, and the IC50 [9] was > 30 µM and the IC50 [10] was > 30 µM.

With `C[C@H]1CCCN1Cc1nc2cc(NC(=O)c3ccc4cnccc4c3)ccc2[nH]1` the IC50 [11] was 1.8 µM, the IC50 (Histamine H3 receptor) was 0.29 µM and the IC50 [12] was 8.6 µM. The IC50 (Tribbles homolog 2) was 3.5 µM, the IC50 [13] was 8.7 µM and the IC50 [14] was > 20 µM. For the same molecule, the IC50 [15] was > 20 µM, the IC50 (Acetylcholinesterase) was 0.25 µM and the Kd (Protein ENL [16]) was 0.075 µM. The Kd (Protein ENL [17]) was 0.109 µM and the IC50 [18] was > 40 µM.

With `CN(C)C(=O)c1ccc(-c2cc(C(=O)N[C@@H]3CCc4ccccc43)no2)cc1O` the IC50 [19] was > 40 µM, the IC50 [20] was > 40 µM and the dTm [21] was 3.61 K. It also gave a Kd (Protein AF-9 [22]) of 0.11 µM, a Kd (Protein AF-9 [23]) of 0.076 µM and a dTm [24] of 5.13 K.

Molecule `O=C(/C=C/N1C[C@H]2C[C@@H]1CN2c1ccccn1)c1ccccc1O` has an IC50 [25] of 4 µM, an IC50 [26] of 0.44 µM and an IC50 [27] of 3.6 µM. It also gave an IC50 [28] of 13 µM and a dTm [29] of 9.2 K.
